Test results as given in the supplement of paper PMC10307832.

Key:
Assay in all cases: relative viability (nuclei count vs DMSO), 5 days (fraction); higher = more cells survive
COR-L23 = system: COR-L23
How it was run: (§1)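 Lung cancer cell lines in 1536-well plates got either a single drug or a fixed anchor-drug dose together with five library-drug doses (not always all listed) in √10 steps, by pin tool, on the day after seeding. Nuclei were counted after 5 days, and relative viability is the treated-to-vehicle ratio of nuclei counts. Values are medians of duplicate plates.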

HARA = system: HARA
How it was run: as §1

SK-LU-1 = system: SK-LU-1
How it was run: as §1

COR-L 105 = system: COR-L 105
How it was run: as §1

NCI-H1792 = system: NCI-H1792
How it was run: as §1

LCLC-103H = system: LCLC-103H
How it was run: as §1

HCC-366 = system: HCC-366
How it was run: as §1

EPLC-272H = system: EPLC-272H
How it was run: as §1

NCI-H1975 = system: NCI-H1975
How it was run: as §1

NCI-H358 = system: NCI-H358
How it was run: as §1

NCI-H1944 = system: NCI-H1944
How it was run: as §1

HCC-78 = system: HCC-78
How it was run: as §1

O=C(O)CCCCC(CCSCc1ccccc1)SCc1ccccc1 (configuration not stated) [CPI-613] + CC(=O)Nc1cccc(-n2c(=O)n(C3CC3)c(=O)c3c(Nc4ccc(I)cc4F)n(C)c(=O)c(C)c32)c1 [Trametinib] (partner 0.02 µM)
relative viability (COR-L23; first compound 5 µM): 0.651 | relative viability (COR-L23; first compound 15.81 µM): 0.524 | relative viability (COR-L23; first compound 50 µM): 0.63 | relative viability (COR-L23; first compound 158.11 µM): 0.198 | relative viability (COR-L23; first compound 500 µM): 0.0522 | relative viability (HARA; first compound 5 µM): 0.805 | relative viability (HARA; first compound 15.81 µM): 0.57 | relative viability (HARA; first compound 50 µM): 0.849 | relative viability (HARA; first compound 158.11 µM): 0.362 | relative viability (HARA; first compound 500 µM): 0.0485 | relative viability (SK-LU-1; first compound 5 µM): 0.452 | relative viability (SK-LU-1; first compound 15.81 µM): 0.477 | relative viability (SK-LU-1; first compound 50 µM): 0.365 | relative viability (SK-LU-1; first compound 158.11 µM): 0.366 | relative viability (SK-LU-1; first compound 500 µM): 0.129 | relative viability (COR-L 105; first compound 5 µM): 0.459 | relative viability (COR-L 105; first compound 15.81 µM): 0.437 | relative viability (COR-L 105; first compound 50 µM): 0.479 | relative viability (COR-L 105; first compound 158.11 µM): 0.355 | relative viability (COR-L 105; first compound 500 µM): 0.225 | relative viability (NCI-H1792; first compound 5 µM): 0.381 | relative viability (NCI-H1792; first compound 15.81 µM): 0.372 | relative viability (NCI-H1792; first compound 50 µM): 0.355 | relative viability (NCI-H1792; first compound 158.11 µM): 0.291 | relative viability (NCI-H1792; first compound 500 µM): 0.0761 | relative viability (LCLC-103H; first compound 5 µM): 0.67 | relative viability (LCLC-103H; first compound 15.81 µM): 0.662 | relative viability (LCLC-103H; first compound 50 µM): 0.727 | relative viability (LCLC-103H; first compound 158.11 µM): 0.422 | relative viability (LCLC-103H; first compound 500 µM): 0.372 | relative viability (HCC-366; first compound 5 µM): 0.367 | relative viability (HCC-366; first compound 15.81 µM): 0.321 | relative viability (HCC-366; first compound 50 µM): 0.29 | relative viability (HCC-366; first compound 158.11 µM): 0.12 | relative viability (HCC-366; first compound 500 µM): 0.0064 | relative viability (EPLC-272H; first compound 5 µM): 0.233 | relative viability (EPLC-272H; first compound 15.81 µM): 0.232 | relative viability (EPLC-272H; first compound 50 µM): 0.29 | relative viability (EPLC-272H; first compound 158.11 µM): 0.222 | relative viability (EPLC-272H; first compound 500 µM): 0.268 | relative viability (NCI-H1975; first compound 5 µM): 0.395 | relative viability (NCI-H1975; first compound 15.81 µM): 0.355 | relative viability (NCI-H1975; first compound 50 µM): 0.272 | relative viability (NCI-H1975; first compound 158.11 µM): 0.348 | relative viability (NCI-H1975; first compound 500 µM): 0.0712 | relative viability (NCI-H358; first compound 5 µM): 0.132 | relative viability (NCI-H358; first compound 15.81 µM): 0.133 | relative viability (NCI-H358; first compound 50 µM): 0.132 | relative viability (NCI-H358; first compound 158.11 µM): 0.0921 | relative viability (NCI-H358; first compound 500 µM): 0.0459 | relative viability (NCI-H1944; first compound 5 µM): 0.427 | relative viability (NCI-H1944; first compound 15.81 µM): 0.398 | relative viability (NCI-H1944; first compound 50 µM): 0.412 | relative viability (NCI-H1944; first compound 158.11 µM): 0.259 | relative viability (NCI-H1944; first compound 500 µM): 0.28 | relative viability (HCC-78; first compound 15.81 µM): 0.729 | relative viability (HCC-78; first compound 50 µM): 0.788
